SMILES strings stand for the structures. Read-outs that look alike come from different tables or passages of the source.

The test system of data set [1] is RCC. The arrangement: method as in PMID 22056247. To be noted: after first line therapy, cited from earlier work.
Data set [2] in a line: Pharmacokinetic analysis of blood samples (noncompartmental). Format: in vivo, human. To be noted: for AUC(0-t) / Cmax: human. Here is the method:
Blood samples were collected pre-, 1, 2, 4, 6, 8, 12, and 24 h post-dose on Days 1 and 2 of Cycles 1 and 2. […] Noncompartmental PK parameters were calculated using WinNonlin (Pharsight, Mountain View, CA).

Take `CNC(=O)c1ccccc1Sc1ccc2c(/C=C/c3ccccn3)n[nH]c2c1` [axitinib]: the mPFS in data set [1] (axitinib arm) is on record as 6.7 months.
As to `CNC(=O)c1cc(Oc2ccc(NC(=O)Nc3ccc(Cl)c(C(F)(F)F)c3)cc2)ccn1` [sorafenib, reference compound], the AUC(0-t) in data set [2] (blood, sorafenib, steady state (cycle 2), HCC patients, tivantinib 360 mg BID and sorafenib 400 mg BID, read-out: AUC0-12h) came out at 43300 ng·h/mL. Moreover, the AUC0-12h in data set [2] (sorafenib, steady state (cycle 2), non-HCC patients, tivantinib 360 mg BID and sorafenib 400 mg BID) was 39,906 ± 20,604 ng*hr/mL. In data set [1] (sorafenib arm), the mPFS is 4.7 months.
Broadly, the Cmax is the highest concentration seen after dosing. Consider `O=C1NC(=O)[C@@H](c2cn3c4c(cccc24)CCC3)[C@@H]1c1c[nH]c2ccccc12` [tivantinib, Tivantinib], for which the AUC(0-t) in data set [2] (in vivo, tivantinib, cycle 2, one HCC patient, tivantinib 240 mg BID with sorafenib 400 mg BID, read-out: AUC0-12 h) was 6690 ng·h/mL; in data set [2] (in vivo, tivantinib, steady state (cycle 2), HCC patients, tivantinib 360 mg BID and sorafenib 400 mg BID, read-out: AUC0-12h), 12400 ng·h/mL; in data set [2] (in vivo, tivantinib, steady state (cycle 2), non-HCC patients, tivantinib 360 mg BID and sorafenib 400 mg BID, read-out: AUC0-12h) it was 8740 ng·h/mL. The Cmax in data set [2] (in vivo, tivantinib, cycle 2, one HCC patient, tivantinib 240 mg BID with sorafenib 400 mg BID, read-out: Cmax) turned out to be 879 ng/mL; in data set [2] (in vivo, tivantinib, steady state (cycle 2), HCC patients, tivantinib 360 mg BID and sorafenib 400 mg BID, read-out: mean Cmax), 1510 ng/mL; in data set [2] (in vivo, tivantinib, steady state (cycle 2), non-HCC patients, tivantinib 360 mg BID and sorafenib 400 mg BID, read-out: mean Cmax), 1320 ng/mL.

The values are drawn from article PMC4295023 (Investigational New Drugs, 2014).
